Three compounds from US6858632B2, “Derivatives of isosorbide mononitrate and its use as vasodilating agents with reduced tolerance” (Lacer, S.A., priority 1998, dated 2005) can be followed below.

The subject of assay [1] is arterial ring previously contracted with 1 μM of Norepinephrine. Kind of assay: Test of vasodilatation (arterial rings pre-contracted with norepinephrine). The settings on record: for EC50: read-out: CE50 (concentration effective 50), vasodilatation of 50% of the arterial ring (average ± SD). On the procedure:
The method used in the assays is substantially the same as described in following references: • Furchgot, R. F. “Methods in nitric oxide research”. Feelisch & Stamler eds. John Wiley & Sons, Chichester, England, pp 567-581. • Trongvanichnam, K, et al. Jpn J. Pharmacol. 1996; 71:167-173. • Salas, E., et al. Eur. J. Pharmacol. 1994; 258:47-55.
The different compounds are tested at 5 different concentrations, at a concentration range from 0.001 to 10 mM, using from 6 to 9 arterial rings for each compound. The obtained results are compared to those from the isosorbide 5-mononitrate, which is used as reference product.
The results are shown in table 1 below and are provided as CE50 (concentration effective 50), which is the concentration of each of the tested compounds wherein there is produced a vasodilatation of 50% of the arterial ring previously contracted with 1 μM of Norepinephrine.

Assay [2] has as its system arterial segments of the rats. Kind of assay: Assay of tolerance (ex vivo vasodilatation of arterial segments after subcutaneous administration for three days). It is filed as in vivo. As to conditions: for development of tolerance (in words): rats, 10 mg/Kg s.c. each eight hours for three days. The method, then:
The different compounds tested are subcutaneously administered to rats at a dose of 10 mg/Kg for three days, each eight hours, and the assay is then done ex vivo to test the capacity to vasodilate the arterial segments of the rats after the subcutaneous administration of the compound.
The method followed is substantially the same as described in following references: • De Garavilla, L., et al. Eur. J. Pharmacol. 1996; 313:89-96. • Keith, R. A., et al. J. Pharmacol. Exp. Ther. 1982; 221:525-531.
The different compounds are tested at 5 different concentrations, at a concentration range from 0.001 to 10 mM, using from 6 to 9 arterial rings for each compound. The obtained results are compared to those from the isosorbide 5-mononitrate, which is used as reference product, and with those obtained from the animals wherein there have not been administered any compound.

The mark [3] stands for this setting: arterial ring previously contracted with 1 μM Norepinephrine, 6 to 9 rings, 0.001 to 10 mM.

Entries after “also recorded” stand apart in the source; their conditions may differ. Counter-ions that a name gives are not always drawn. Like-named read-outs stand apart in the source and are kept apart here.

As for `CC(=O)S[C@H]1CO[C@H]2[C@@H]1OC[C@H]2O[N+](=O)[O-]` [Compound 5, 2-acetylmercaptoisosorbide 5-mononitrate], the EC50 in assay [1] (setting [3]) is 950 ± 100 µM; in assay [2] (Rattus norvegicus, sc, 72 h, Group A: rats not given any compound, ex vivo arterial rings, read-out: CE50, animals without any compound administrated during three days (Group A) (average ± SD)), 950 ± 100 µM. In addition, the EC50 at 10 mg/kg in assay [2] (Rattus norvegicus, sc, Group B: rats given compound subcutaneously, 10 mg/Kg each eight hours for three days, ex vivo arterial rings, read-out: CE50, animals with compound administrated during three days (Group B) (average ± SD)) was 990 ± 100 µM. Besides, the “development of tolerance (in words)” value in assay [2] (10 mg/kg) is on record as “development of less tolerance as compared to the reference product; also recorded: practically null”.

Regarding `CCSc1ncccc1C(=O)O[C@H]1CO[C@H]2[C@@H]1OC[C@H]2O[N+](=O)[O-]` [Compound 1, isosorbide 2-(2′-ethylthio)nicotinate 5-mononitrate hydrochloride], the EC50 turned out to be 130 ± 10 µM in assay [1] and 130 ± 10 µM in assay [2] (Rattus norvegicus, sc, 72 h, read-out: CE50, animals without any compound administrated during three days (Group A) (average ± SD)). Further, in assay [1] (reference: isosorbide 5-mononitrate), the “vasodilating activity compared with the reference product (in words)” value is “superior to that of the reference product”. The EC50 at 10 mg/kg in assay [2] (Rattus norvegicus, sc, read-out: CE50, animals with compound administrated during three days (Group B) (average ± SD)) was 590 ± 100 µM. The “development of tolerance (in words)” value in assay [2] was “development of less tolerance as compared to the reference product”.

For `O=[N+]([O-])O[C@@H]1CO[C@H]2[C@@H]1OC[C@@H]2O` [isosorbide 5-mononitrate, reference compound], the EC50 came to 920 ± 200 µM in assay [1] (setting [3]); 920 ± 200 µM in assay [2] (Group A: rats not given any compound, ex vivo arterial rings, read-out: CE50, animals without any compound administrated during three days (Group A) (average ± SD)); 6500 ± 1500 µM in assay [2] (Group B: rats given compound subcutaneously, 10 mg/Kg each eight hours for three days, ex vivo arterial rings, read-out: CE50, animals with compound administrated during three days (Group B) (average ± SD)). For the same compound, the “CE50 in treated animals relative to CE50 in not treated animals (times)” value in assay [2] (Group B versus Group A) was “seven”. Besides, in assay [2], the “development of tolerance (in words)” value is on record as “strong developments of tolerance”.
